# Assay results from patent US10597388B2, “Pyridazinone herbicides” (FMC CORPORATION, priority 2014, dated 2020).
# Assays:
# Assay type in all cases: in vivo
# [1] = system: horseweed (Conyza canadensis); experiment: Test E greenhouse herbicide test, pre- and postemergence
# How it was run: (§1)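 Pre- and postemergence sprays, same solvent–surfactant formulation. Substrate: silt loam (pre), peat-based mix (post, 1–4 leaf, 2–18 cm). Readout: visual control rating 0–100 against controls at 14–21 d.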
# [2] = system: foxtail, green (green foxtail, Setaria viridis); experiment: as above; conditions: Preemergence
# How it was run: as §1
# [3] = system: kochia (Kochia scoparia); experiment: as above
# How it was run: as §1
# [4] = system: arrowleaf sida (Sida rhombifolia); experiment: as above
# How it was run: as §1
# [5] = system: velvetleaf (Abutilon theophrasti); experiment: as above; conditions: Preemergence
# How it was run: as §1
# [6] = system: nightshade (eastern black nightshade, Solanum ptycanthum); experiment: as above; conditions: Preemergence
# How it was run: as §1
# [7] = system: soybean (Glycine max); experiment: as above
# How it was run: as §1
# [8] = system: momingglory (Ipomoea coccinea); experiment: as above; conditions: Preemergence
# How it was run: as §1
# [9] = system: foxtail, giant (giant foxtail, Setaria faberii); experiment: as above; conditions: Preemergence
# How it was run: as §1
# [10] = system: crabgrass, large (large crabgrass, Digitaria sanguinalis); experiment: as above; conditions: Preemergence
# How it was run: as §1
# [11] = system: dayflower (Virginia (VA) dayflower, Commelina virginica); experiment: as above
# How it was run: as §1
# [12] = system: Italian ryegrass (Lolium multiflorum); experiment: as above
# How it was run: as §1
# [13] = system: pigweed, palmer (palmer pigweed, Amaranthus palmeri); experiment: as above
# How it was run: as §1
# [14] = system: johnsongrass (Sorghum halepense); experiment: as above; conditions: Preemergence
# How it was run: as §1
# [15] = system: waterhemp_RES2 (ALS & HPPD resistant common waterhemp, Amaranthus rudis); experiment: Test E greenhouse herbicide test, postemergence
# How it was run: (§2)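 Values are visual ratings from 0 (no effect) to 100 (complete control), scored relative to untreated controls 14 to 21 d after treatment. Plants were 1- to 4-leaf seedlings (2 to 18 cm) in potting medium and received postemergence applications of formulated test chemicals.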
# [16] = system: waterhemp_RES1 (ALS & Triazine resistant common waterhemp, Amaranthus rudis); experiment: Test E greenhouse herbicide test, postemergence
# How it was run: as §2
# [17] = 62 g ai/ha, Postemergence, scale 0 to 100 (0 no effect, 100 complete control)
# [18] = 62 g ai/ha, Preemergence, scale 0 to 100 (0 no effect, 100 complete control)
# [19] = 125 g ai/ha, Postemergence, scale 0 to 100 (0 no effect, 100 complete control)
# [20] = 125 g ai/ha, Preemergence, scale 0 to 100 (0 no effect, 100 complete control)
# [21] = 250 g ai/ha, Postemergence, scale 0 to 100 (0 no effect, 100 complete control)
# [22] = Postemergence, 31 g ai/ha, visual, scale 0 no effect to 100 complete control
# [23] = Preemergence, 31 g ai/ha, scale 0 to 100, 0 no effect, 100 complete control
# [24] = Preemergence, 250 g ai/ha, visual, scale 0 no effect to 100 complete control
# [25] = 62 g ai/ha, scale 0 to 100 (0 no effect, 100 complete control)
# [26] = 125 g ai/ha, scale 0 to 100 (0 no effect, 100 complete control)
# [27] = 31 g ai/ha, scale 0 to 100, 0 no effect, 100 complete control
# [28] = 250 g ai/ha, visual, scale 0 no effect to 100 complete control
# [29] = 31 g ai/ha, visual, scale 0 no effect to 100 complete control
# [30] = 250 g ai/ha, scale 0 to 100 (0 no effect, 100 complete control)
smiles,measurement,setting,value
Cc1ccc2ccccc2c1-c1c(OC(=O)OC(C)C)c(C)nn(C)c1=O [Compound 72],"Plant response rating, Horseweed",[1]; [17],60
same,"Plant response rating, Horseweed",[1]; [18],100
same,"Plant response rating, Horseweed",[1]; [19],75
same,"Plant response rating, Horseweed",[1]; [20],100
same,"Plant response rating, Horseweed",[1]; [21],70
same,"Plant response rating, Horseweed",[1]; [22],60
same,"Plant response rating, Horseweed",[1]; [23],0
same,"Plant response rating, Horseweed",[1]; [24],100
same,"Plant response rating, Foxtail, Green",[2]; [25],35
same,"Plant response rating, Foxtail, Green",[2]; [26],65
same,"Plant response rating, Foxtail, Green",[2]; [27],30
same,"Plant response rating, Foxtail, Green",[2]; [28],70
same,"Plant response rating, Kochia",[3]; [17],98
same,"Plant response rating, Kochia",[3]; [18],35
same,"Plant response rating, Kochia",[3]; [19],90
same,"Plant response rating, Kochia",[3]; [20],60
same,"Plant response rating, Kochia",[3]; [21],90
same,"Plant response rating, Kochia",[3]; [22],70
same,"Plant response rating, Kochia",[3]; [23],25
same,"Plant response rating, Kochia",[3]; [24],98
same,"Plant response rating, Arrowleaf Sida",[4]; [17],75
same,"Plant response rating, Arrowleaf Sida",[4]; [18],35
same,"Plant response rating, Arrowleaf Sida",[4]; [19],80
same,"Plant response rating, Arrowleaf Sida",[4]; [20],85
same,"Plant response rating, Arrowleaf Sida",[4]; [21],90
same,"Plant response rating, Arrowleaf Sida",[4]; [22],70
same,"Plant response rating, Arrowleaf Sida",[4]; [23],20
same,"Plant response rating, Arrowleaf Sida",[4]; [24],65
same,"Plant response rating, Velvetleaf",[5]; [25],40
same,"Plant response rating, Velvetleaf",[5]; [26],80
same,"Plant response rating, Velvetleaf",[5]; [27],50
same,"Plant response rating, Velvetleaf",[5]; [28],90
same,"Plant response rating, Nightshade",[6]; [25],80
same,"Plant response rating, Nightshade",[6]; [26],100
same,"Plant response rating, Nightshade",[6]; [27],0
same,"Plant response rating, Nightshade",[6]; [28],100
same,"Plant response rating, Soybean",[7]; [17],30
same,"Plant response rating, Soybean",[7]; [18],0
same,"Plant response rating, Soybean",[7]; [19],30
same,"Plant response rating, Soybean",[7]; [20],0
same,"Plant response rating, Soybean",[7]; [21],50
same,"Plant response rating, Soybean",[7]; [22],25
same,"Plant response rating, Soybean",[7]; [23],0
same,"Plant response rating, Soybean",[7]; [24],15
same,"Plant response rating, Morningglory",[8]; [25],30
same,"Plant response rating, Morningglory",[8]; [26],80
same,"Plant response rating, Morningglory",[8]; [27],20
same,"Plant response rating, Morningglory",[8]; [28],95
same,"Plant response rating, Foxtail, Giant",[9]; [25],65
same,"Plant response rating, Foxtail, Giant",[9]; [26],70
same,"Plant response rating, Foxtail, Giant",[9]; [27],35
same,"Plant response rating, Foxtail, Giant",[9]; [28],80
same,"Plant response rating, Crabgrass, Large",[10]; [25],0
same,"Plant response rating, Crabgrass, Large",[10]; [26],30
same,"Plant response rating, Crabgrass, Large",[10]; [27],0
same,"Plant response rating, Crabgrass, Large",[10]; [28],90
same,"Plant response rating, Dayflower, VA",[11]; [17],65
same,"Plant response rating, Dayflower, VA",[11]; [18],15
same,"Plant response rating, Dayflower, VA",[11]; [19],80
same,"Plant response rating, Dayflower, VA",[11]; [20],50
same,"Plant response rating, Dayflower, VA",[11]; [21],80
same,"Plant response rating, Dayflower, VA",[11]; [22],60
same,"Plant response rating, Dayflower, VA",[11]; [23],0
same,"Plant response rating, Dayflower, VA",[11]; [24],50
same,"Plant response rating, Ryegrass, Italian",[12]; [17],80
same,"Plant response rating, Ryegrass, Italian",[12]; [18],90
same,"Plant response rating, Ryegrass, Italian",[12]; [19],85
same,"Plant response rating, Ryegrass, Italian",[12]; [20],100
same,"Plant response rating, Ryegrass, Italian",[12]; [21],90
same,"Plant response rating, Ryegrass, Italian",[12]; [22],80
same,"Plant response rating, Ryegrass, Italian",[12]; [23],90
same,"Plant response rating, Ryegrass, Italian",[12]; [24],100
same,"Plant response rating, Pigweed, Palmer",[13]; [17],50
same,"Plant response rating, Pigweed, Palmer",[13]; [18],75
same,"Plant response rating, Pigweed, Palmer",[13]; [19],60
same,"Plant response rating, Pigweed, Palmer",[13]; [20],95
same,"Plant response rating, Pigweed, Palmer",[13]; [21],75
same,"Plant response rating, Pigweed, Palmer",[13]; [22],50
same,"Plant response rating, Pigweed, Palmer",[13]; [23],35
same,"Plant response rating, Pigweed, Palmer",[13]; [24],90
same,"Plant response rating, Johnsongrass",[14]; [25],0
same,"Plant response rating, Johnsongrass",[14]; [26],35
same,"Plant response rating, Johnsongrass",[14]; [27],0
same,"Plant response rating, Johnsongrass",[14]; [28],35
same,"Plant response rating, Waterhemp_RES2",[15]; [29],35
same,"Plant response rating, Waterhemp_RES2",[15]; [25],40
same,"Plant response rating, Waterhemp_RES2",[15]; [26],50
same,"Plant response rating, Waterhemp_RES2",[15]; [30],65
same,"Plant response rating, Waterhemp_RES1",[16]; [29],60
same,"Plant response rating, Waterhemp_RES1",[16]; [25],80
same,"Plant response rating, Waterhemp_RES1",[16]; [26],80
same,"Plant response rating, Waterhemp_RES1",[16]; [30],90
